From US11891634B2, “PDE5A destabilizing domains” (The Board of Trustees of the Leland Stanford Junior …, priority 2017, dated 2024)

What was measured:
Format in all cases: cell-based, human
[1] = tested on: HCT116 cells transduced with the constructs; test: Response to Sildenafil, GFP expression by flow cytometry in HCT116; details: for MFI / Stabilization ratio with Sildenafil: 48 hours, HCT116
Method: Similar experiments were performed in HCT116 cells using sildenafil. The above-mentioned DDs were cloned as AcGFP fusion into pELNS vector carrying mCherry marker and packaged in lentiviral vectors. HCT116 cells were transduced with the constructs and stable integrants were selected by cell sorting using mCherry marker. Cells were treated with sildenafil at the following μM concentrations: 0.01, 0.02, 0.05, 0.14, 0.41, 1.23, 3.7, 11.11, 33.33, and 100 for a duration of 48 hours. The fluorescence was analyzed by flow cytometry and the mean fluorescence intensity was calculated for all samples. […] The stabilization ratios are shown in Table 24 and Table 25 and the basal expression is show in Table 26.

[2] = tested on: HCT 116 cells transduced with the PDE5A DD derived GFP constructs; test: Response to Tadalafil, GFP expression by FACS in HCT116; details: for MFI / Stabilization ratio with Tadalafil: 48 hours, HCT116
Method: (§1) PDE5AN (#3) was cloned as AcGFP fusion into pELNS vector carrying mCherry marker and packaged in lentiviral vectors. HCT116 cells were transduced with the construct and stable integrants were selected by cell sorting using mCherry marker. Cells were treated with vehicle (dimethyl sulfoxide, DMSO) or varying doses of Tadalafil (TDF) for 48 hrs with doses ranging from 0.01 μM to 100 μM. Following the treatment, cells were analyzed for GFP expression using FACS. Basal expression was calculated as the ratio of GFP signal in the absence of ligand for a given cell line to auto fluorescence of parental HCT-116 cells. Stabilization ratio was calculated as the ratio of the GFP signal observed in the presence of stabilizing ligand to the signal from the same cell line in the absence of ligand.
HCT 116 cells transduced with the PDE5A DD derived GFP constructs were also tested with increasing doses of Tadalafil. The HCT116 cells were incubated for 48 hours with Tadalafil starting at dose 0.01 μM to 100 μM. The GFP intensity of the Tadalafil treated samples was compared to the parental untransduced HCT116 and DMSO treated cells for each construct. The mean fluorescence intensity was calculated for each sample and used to calculate the stabilization ratios as well as the basal expression for each construct. The stabilization ratios are shown in Table 19 and Table 20 and the basal expression is show in Table 21.

[3] = tested on: HCT 116 cells transduced with the PDE5A DD derived GFP constructs; test: Response to Vardenafil, GFP expression by FACS in HCT116; details: for MFI / Stabilization ratio with Vardenafil: 48 hours, HCT116
Method: as §1, with “Mutations were created in PDE5A (535-860) catalytic domain using site directed mutagenesis and the mutants were” for “PDE5AN (#3) was”, “constructs” for “construct”, “10 μM Vardenafil (VDF)” for “varying doses of Tadalafil (TDF)”, “hours.” for “hrs with doses ranging from 0.01 μM to 100 μM.”
HCT 116 cells transduced with the PDE5A DD derived GFP constructs were also tested with increasing doses of Vardenafil. The HCT116 cells were incubated for 48 hours with Vardenafil starting at a dose of 0.002 μM to 30 μM. The GFP intensity of the Vardenafil treated samples was compared to the parental untransduced HCT116 and DMSO treated cells for each construct. The mean fluorescence intensity was calculated for each sample and used to calculate the stabilization ratios as well as the basal expression for each construct. The GFP expression was measured using flow cytometry and the mean fluorescence intensity (MFI) was calculated for each sample. The stabilization ratios are shown in Table 13 and Table 14 and the basal expression is show in Table 15.

PDE5AC (#28): AcGFP fused to C-terminal DD 535-860 of PDE5A (Q589R, K591E, N609H, D764V), SEQ ID NO. 25
MFI ([1]; DMSO (no Sildenafil)): 13208
Stabilization ratio with Sildenafil ([1]; Sildenafil 0.01 μM vs DMSO): 1.1
MFI ([1]; Sildenafil 0.01 μM): 14613
Stabilization ratio with Sildenafil ([1]; Sildenafil 0.02 μM vs DMSO): 1.2
MFI ([1]; Sildenafil 0.02 μM): 16502
Stabilization ratio with Sildenafil ([1]; Sildenafil 0.05 μM vs DMSO): 1.3
MFI ([1]; Sildenafil 0.05 μM): 17801
Stabilization ratio with Sildenafil ([1]; Sildenafil 0.14 μM vs DMSO): 2.0
MFI ([1]; Sildenafil 0.14 μM): 26694
Stabilization ratio with Sildenafil ([1]; Sildenafil 0.41 μM vs DMSO): 3.3
MFI ([1]; Sildenafil 0.41 μM): 43862
Stabilization ratio with Sildenafil ([1]; Sildenafil 1.23 μM vs DMSO): 5.0
MFI ([1]; Sildenafil 1.23 μM): 65762
Stabilization ratio with Sildenafil ([1]; Sildenafil 3.70 μM vs DMSO): 6.3
MFI ([1]; Sildenafil 3.70 μM): 83657
Stabilization ratio with Sildenafil ([1]; Sildenafil 11.11 μM vs DMSO): 6.1
MFI ([1]; Sildenafil 11.11 μM): 80269
Stabilization ratio with Sildenafil ([1]; Sildenafil 33.33 μM vs DMSO): 6.3
MFI ([1]; Sildenafil 33.33 μM): 83663
Stabilization ratio with Sildenafil ([1]; Sildenafil 100.00 μM vs DMSO): 6.1
Basal expression ([1]; Table 26, MFI with DMSO / parental HCT116, Sildenafil experiment): 10.3
MFI ([2]; DMSO (no Tadalafil)): 15004
Basal expression ([2]; Table 21, MFI with DMSO / parental HCT116, Tadalafil experiment): 11.72
Stabilization ratio with Tadalafil ([2]; Tadalafil 0.01 μM vs DMSO): 0.9
MFI ([2]; Tadalafil 0.01 μM): 14073
Stabilization ratio with Tadalafil ([2]; Tadalafil 0.02 μM vs DMSO): 1.0
MFI ([2]; Tadalafil 0.02 μM): 14513
Stabilization ratio with Tadalafil ([2]; Tadalafil 0.05 μM vs DMSO): 1.0
MFI ([2]; Tadalafil 0.05 μM): 15730
Stabilization ratio with Tadalafil ([2]; Tadalafil 0.14 μM vs DMSO): 1.2
MFI ([2]; Tadalafil 0.14 μM): 18316
Stabilization ratio with Tadalafil ([2]; Tadalafil 0.41 μM vs DMSO): 1.9
MFI ([2]; Tadalafil 0.41 μM): 28462
Stabilization ratio with Tadalafil ([2]; Tadalafil 1.23 μM vs DMSO): 3.0
MFI ([2]; Tadalafil 1.23 μM): 44739
Stabilization ratio with Tadalafil ([2]; Tadalafil 3.7 μM vs DMSO): 4.6
MFI ([2]; Tadalafil 3.7 μM): 69430
Stabilization ratio with Tadalafil ([2]; Tadalafil 11.11 μM vs DMSO): 5.7
MFI ([2]; Tadalafil 11.11 μM): 85998
Stabilization ratio with Tadalafil ([2]; Tadalafil 33.33 μM vs DMSO): 6.3
MFI ([2]; Tadalafil 33.33 μM): 95189
Stabilization ratio with Tadalafil ([2]; Tadalafil 100 μM vs DMSO): 6.5
MFI ([2]; Tadalafil 100 μM): 97016
MFI ([3]; DMSO (no Vardenafil)): 13817
Basal (DMSO/Parental) ([3]; Table 10, GFP signal without ligand / auto fluorescence of parental HCT-116): 10.4
Basal ([3]; Table 15, MFI with DMSO / parental HCT116, Vardenafil experiment): 7.07
Stabilization ratio with Vardenafil ([3]; Vardenafil 0.002 μM vs DMSO): 1.1
MFI ([3]; Vardenafil 0.002 μM): 15437
MFI ([3]; Vardenafil 0.005 μM): 19446
Stabilization ratio with Vardenafil ([3]; Vardenafil 0.014 μM vs DMSO): 2.1
MFI ([3]; Vardenafil 0.014 μM): 29314
Stabilization ratio with Vardenafil ([3]; Vardenafil 0.041 μM vs DMSO): 3.3
MFI ([3]; Vardenafil 0.041 μM): 45804
Stabilization ratio with Vardenafil ([3]; Vardenafil 0.123 μM vs DMSO): 5.4
MFI ([3]; Vardenafil 0.123 μM): 74153
Stabilization ratio with Vardenafil ([3]; Vardenafil 0.370 μM vs DMSO): 5.9
MFI ([3]; Vardenafil 0.370 μM): 81663
Stabilization ratio with Vardenafil ([3]; Vardenafil 1.111 μM vs DMSO): 6.5
MFI ([3]; Vardenafil 1.111 μM): 89426
Stabilization ratio with Vardenafil ([3]; Vardenafil 3.333 μM vs DMSO): 6.7
MFI ([3]; Vardenafil 3.333 μM): 92290
Stabilization ratio with Vardenafil ([3]; Vardenafil 10 μM vs DMSO): 6.3
MFI ([3]; Vardenafil 10 μM): 86985
Stabilization ratio with Vardenafil ([3]; Vardenafil 30 μM vs DMSO): 6.7
MFI ([3]; Vardenafil 30 μM): 93145
